Measurements from paper PMC8467763, “The Central PXXP Motif Is Crucial for PMAP-23 Translocation across the Lipid Bilayer” (International Journal of Molecular Sciences, 2021).
Ends that are not written are not given here.

Tests used:
Staphylococcus aureus = assay type: cell-based
Description: (§1) The antimicrobial activity of the peptides was tested against gram-positive Staphylococcus aureus and gram-negative Escherichia coli by a broth microdilution method, as described previously. Briefly, a colony of bacteria was incubated in culture medium (10 mL) and incubated at 37 °C for 14–18 h. After an aliquot (50 μL) of this culture was transferred to fresh culture medium (10 mL), each bacterial strain was grown to reach the mid-logarithmic phase. A total of 100 μL of bacteria (2 × 10^6 CFU/mL) were added to 96-well microtiter plates in the presence of serial dilutions of peptides. […] Measurements were repeated at least three times in triplicate.

Escherichia coli = assay type: cell-based
Description: as §1

| Sequence | MIC S. aureus (Staphylococcus aureus) [µM] | MIC E. coli (Escherichia coli) [µM] |
| --- | --- | --- |
| RIIDLLWRVRRAQKAKFVTVWVR [PMAP-PA] | 8 to 16 | 8 to 16 |
| RIIDLLWRVRRGQKGKFVTVWVR [PMAP-PG] |  | 8 to 16 |
| RIIDLLWRVRRPQKPKFVTVWVR [PMAP-23] | 2 to 4 | 2 to 4 |
